Experimental data reported in US12540131B2 (Merck Sharp & Dohme LLC, priority 2019, dated 2026).

The compounds below were run against GST tagged truncated human mutant G2019S LRRK2 (Homo sapiens (Human), UniProt Q5S007, G2019S) (assay: LRRK2 Km ATP LanthaScreen Assay). Settings: G2019S LRRK2, 134 μM ATP (Km ATP), mean values.
GST tagged truncated human mutant G2019S LRRK2, sequence (Q5S007 970-2527 G2019S): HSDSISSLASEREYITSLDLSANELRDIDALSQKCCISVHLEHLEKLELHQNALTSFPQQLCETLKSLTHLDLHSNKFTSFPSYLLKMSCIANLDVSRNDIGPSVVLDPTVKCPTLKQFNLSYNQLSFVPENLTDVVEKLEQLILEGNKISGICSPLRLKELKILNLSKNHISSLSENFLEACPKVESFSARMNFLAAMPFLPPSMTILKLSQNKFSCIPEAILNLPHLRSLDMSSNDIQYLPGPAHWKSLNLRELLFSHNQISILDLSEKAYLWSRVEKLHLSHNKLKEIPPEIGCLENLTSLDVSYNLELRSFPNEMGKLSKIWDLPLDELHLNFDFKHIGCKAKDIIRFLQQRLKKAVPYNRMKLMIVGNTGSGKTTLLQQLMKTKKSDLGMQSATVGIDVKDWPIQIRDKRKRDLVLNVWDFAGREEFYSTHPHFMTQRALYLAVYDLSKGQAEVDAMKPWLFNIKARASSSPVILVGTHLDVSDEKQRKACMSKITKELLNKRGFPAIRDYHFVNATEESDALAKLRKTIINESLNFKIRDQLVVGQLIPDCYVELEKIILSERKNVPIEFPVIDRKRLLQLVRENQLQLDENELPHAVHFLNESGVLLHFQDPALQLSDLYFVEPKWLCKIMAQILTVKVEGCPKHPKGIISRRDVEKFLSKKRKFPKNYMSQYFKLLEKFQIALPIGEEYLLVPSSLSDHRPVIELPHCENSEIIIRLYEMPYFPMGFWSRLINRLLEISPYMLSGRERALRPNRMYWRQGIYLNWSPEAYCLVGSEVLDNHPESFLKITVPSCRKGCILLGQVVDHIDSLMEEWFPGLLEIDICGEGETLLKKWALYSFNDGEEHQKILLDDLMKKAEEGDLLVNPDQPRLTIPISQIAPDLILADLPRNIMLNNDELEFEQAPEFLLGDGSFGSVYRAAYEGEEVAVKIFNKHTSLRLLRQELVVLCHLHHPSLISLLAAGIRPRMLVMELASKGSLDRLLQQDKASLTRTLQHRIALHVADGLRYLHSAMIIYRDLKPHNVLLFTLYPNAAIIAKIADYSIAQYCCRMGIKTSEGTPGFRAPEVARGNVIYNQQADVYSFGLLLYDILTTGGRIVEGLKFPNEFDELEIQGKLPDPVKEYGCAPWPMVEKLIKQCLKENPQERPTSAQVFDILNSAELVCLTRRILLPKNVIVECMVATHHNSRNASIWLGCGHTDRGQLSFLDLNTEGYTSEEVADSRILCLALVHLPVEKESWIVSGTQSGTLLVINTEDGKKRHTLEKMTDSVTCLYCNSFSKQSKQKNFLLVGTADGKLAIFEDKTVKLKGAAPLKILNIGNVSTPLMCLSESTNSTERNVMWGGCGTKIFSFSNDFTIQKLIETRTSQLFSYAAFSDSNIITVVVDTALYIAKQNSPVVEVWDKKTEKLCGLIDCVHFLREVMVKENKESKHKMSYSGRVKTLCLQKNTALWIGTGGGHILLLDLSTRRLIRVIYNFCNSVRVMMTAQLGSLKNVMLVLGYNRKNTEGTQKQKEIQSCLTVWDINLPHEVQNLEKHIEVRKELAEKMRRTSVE
Assay type: biochemical
Description: General Experimental Information: • Unless otherwise noted, all reactions are magnetically stirred. Unless otherwise noted, when diethyl ether is used in the experiments described below, it is Fisher ACS certified material and is stabilized with BHT. Unless otherwise noted, “concentrated” and/or “solvent removed under reduced pressure” means evaporating the solvent from a solution or mixture using a rotary evaporator or vacuum pump. Unless otherwise noted, flash chromatography is carried out on a Teledyne Isco (Lincoln, NE), Analogix (Burlington, WI), or Biotage (Stockholm, SWE) automated chromatography system using a commercially available cartridge as the column. Columns may be purchased from Teledyne Isco, Analogix, Biotage, Varian (Palo Alto, CA), or Supelco (Bellefonte, PA) and are usually filled with silica gel as the stationary phase. Reverse phase prep-HPLC conditions, where used, can be found at the end of each experimental section. Aqueous solutions were concentrated on a Genevac (Ipswich, ENG) or by freeze-drying/lyophilization. Unless otherwise noted, all LRRK2 pIC50 data presented in tables refers to the LRRK2 G2019S Km ATP LanthaScreen™ assay (Life Technologies Corp., Carlsbad, CA) that is described in the Biological Assay section.
The pIC50 values reported herein were measured as follows.
Biological Assay: LRRK2 Km ATP LanthaScreen™ Assay
Compound potency against LRRK2 kinase activity was determined using LanthaScreen™ technology from Life Technologies Corporation (Carlsbad, CA) using a GST20 tagged truncated human mutant G2019S LRRK2 in the presence of the fluorescein-labeled peptide substrate LRRKtide® (LRRK2 phosphorylated ezrin/radixin/moesin (ERM)), also from Life Technologies. The data presented for the Km ATP LanthaScreen™ Assay represents mean IC50 values based on several test results and may have reasonable deviations depending on the specific conditions and reagents used. Km is the Michaelis constant of an enzyme and is defined as the concentration of native substrate (ATP for a kinase) which permits the enzyme to achieve half Vmax (Vmax=rate of reaction when the enzyme is saturated with substrate). IC50 (half-maximal inhibitory concentration) represents the concentration of inhibitor required to inhibit LRRK2 kinase activity by 50%. Assays were performed in the presence of 134 μM ATP (Km ATP). Upon completion, the assay was stopped, and phosphorylated substrate detected with a terbium (Tb)-labeled anti-pERM antibody (cat. no. PV4898). The compound dose response was prepared by diluting a 10 mM stock of compound to a maximum concentration of 9.99 μM in 100% DMSO, followed by custom fold serial dilution in DMSO nine times. 20 nL of each dilution was spotted via a Labcyte Echo onto a 384-well black-sided plate (Corning 3575) followed by 15 μl of a 1.25 nM enzyme solution in 1× assay buffer (50 mM Tris pH 8.5, 10 mM MgCl2, 0.01% Brij-35, 1 mM EGTA, 2 mM dithiothreitol, 0.05 mM sodium orthovanadate). Following a 15-minute incubation period at RT, the kinase reaction was started with the addition of 5 μl of 400 nM fluorescein-labeled LRRKtide® (LRRK2 phosphorylated ezrin/radixin/moesin (ERM)) peptide substrate and 134 μM ATP solution in 1× assay buffer. The reaction was allowed to progress at ambient temperature for 90 minutes. The reaction was then stopped by the addition of 20 μl of TR-FRET Dilution Buffer (Life Technologies, Carlsbad, CA) containing 2 nM Tb-labeled anti-phospho LRRKtide® (LRRK2 phosphorylated ezrin/radixin/moesin (ERM)) antibody and 10 mM EDTA (Life Technologies, Carlsbad, CA). After an incubation period of 1 h at RT, the plate was read on an EnVision® multimode plate reader (Perkin Elmer, Waltham, MA) with an excitation wavelength of 337 nm (Laser) and a reading emission at both 520 and 495 nm. Compound IC50 values were interpolated from nonlinear regression best-fits of the log of the final compound concentration, plotted as a function of the 520/495-nm emission ratio using activity base “Abase”). […]
With Cc1c(Nc2ncc3cc(Cl)c(C4CCN([C@H]5COC[C@H]5O)CC4)cc3n2)cnn1C12CC(C1)C2 (single isomer, unassigned) [Ex-2.27, (3S,4S) or (3R,4R) 4-[4-(2-{[1-(bicyclo[1.1.1]pentan-1-yl)-5-methyl-1H-pyrazol-4-yl]amino}-6-chloroquinazolin-7-yl)piperidin-1-yl]oxolan-3-ol] the “LRRK2 pIC50” value was 8.87.
For Cc1c(Nc2ncc3cc(Cl)c(C4CCN([C@@H]5COC[C@@H]5O)CC4)cc3n2)cnn1C12CC(C1)C2 (single isomer, unassigned) [Ex-2.28, (3S,4S) or (3R,4R) 4-[4-(2-{[1-(bicyclo[1.1.1]pentan-1-yl)-5-methyl-1H-pyrazol-4-yl]amino}-6-chloroquinazolin-7-yl)piperidin-1-yl]oxolan-3-ol], the “LRRK2 pIC50” value was >9.20.
With Cc1cc2cnc(Nc3cnn(C4CC4)c3Cl)nc2cc1C1CCN([C@]2(C)COC[C@@H]2O)CC1 (single isomer, unassigned) [Ex-2.37, (3S,4S) or (3R,4R) 4-(4-{2-[(5-chloro-1-cyclopropyl-1H-pyrazol-4-yl)amino]-6-methylquinazolin-7-yl}piperidin-1-yl)-4-methyloxolan-3-ol] the “LRRK2 pIC50” value was 7.78.
For Cc1cc2cnc(Nc3cnn(C4CC4)c3C)nc2cc1C1CCN([C@@]2(C)COC[C@H]2O)CC1 (single isomer, unassigned) [Ex-2.38, (3S,4S) or (3R,4R) 4-(4-{2-[(1-cyclopropyl-5-methyl-1H-pyrazol-4-yl)amino]-6-methylquinazolin-7-yl}piperidin-1-yl)-4-methyloxolan-3-ol], the “LRRK2 pIC50” value was >9.20.
For Cc1cc2cnc(Nc3cnn(C4CC4)c3C)nc2cc1C1CCN([C@]2(C)COC[C@@H]2O)CC1 (single isomer, unassigned) [Ex-2.39, (3S,4S) or (3R,4R) 4-(4-{2-[(1-cyclopropyl-5-methyl-1H-pyrazol-4-yl)amino]-6-methylquinazolin-7-yl}piperidin-1-yl)-4-methyloxolan-3-ol], the “LRRK2 pIC50” value was 8.09.
In the case of OC1COCC1n1ncc(Nc2ncc3cc(Cl)c(C4CCN(C5COC5)CC4)cc3n2)c1Cl (single isomer, unassigned) [Ex-2.47, (3S,4S) or (3R,4R) or (3S,4R) or (3R,4S) 4-[5-chloro-4-({6-chloro-7-[1-(oxetan-3-yl)piperidin-4-yl]quinazolin-2-yl}amino)-1H-pyrazol-1-yl]oxolan-3-ol], the “LRRK2 pIC50” value is reported as 9.11.
With Cc1c(Nc2ncc3cc(Cl)c(C4CCN(C5COCC5C#N)CC4)cc3n2)cnn1C1CC1 (single isomer, unassigned) [Ex-2.49, (3S,4S) or (3R,4R) or (3S,4R) or (3R,4S) 4-(4-{6-chloro-2-[(1-cyclopropyl-5-methyl-1H-pyrazol-4-yl)amino]quinazolin-7-yl}piperidin-1-yl)oxolane-3-carbonitrile] the “LRRK2 pIC50” value was 8.88.
For Cc1c(Nc2ncc3cc(Cl)c(C4CCN(C5COCC5C#N)CC4)cc3n2)cnn1C1CC1 (single isomer, unassigned) [Ex-2.50, (3S,4S) or (3R,4R) or (3S,4R) or (3R,4S) 4-(4-{6-chloro-2-[(1-cyclopropyl-5-methyl-1H-pyrazol-4-yl)amino]quinazolin-7-yl}piperidin-1-yl)oxolane-3-carbonitrile], the “LRRK2 pIC50” value was 9.13.
With Cc1cc(Nc2ncc3cc(Cl)c(C4CCN([C@H]5COC[C@H]5O)CC4)cc3n2)sn1 (single isomer, unassigned) [Ex-2.55, (3S,4S) or (3R,4R)4-(4-{6-chloro-2-[(3-methyl-l,2-thiazol-5-yl)amino]quinazolin-7-yl}piperidin-1-yl)oxolan-3-ol] the “LRRK2 pIC50” value was >9.20.
For Cc1c(Nc2ncc3cc(Cl)c(C4CCN([C@@]5(C)COC[C@H]5O)CC4)cc3n2)cnn1C (single isomer, unassigned) [Ex-2.65, (3S,4S) or (3R,4R) 4-(4-{6-chloro-2-[(1,5-dimethyl-1H-pyrazol-4-yl)amino]quinazolin-7-yl}piperidin-1-yl)-4-methyloxolan-3-ol], the “LRRK2 pIC50” value was 7.84.
With Cn1ncc(Nc2ncc3cc(Cl)c(C4CCN([C@H]5COC[C@H]5O)CC4)cc3n2)c1Cl (single isomer, unassigned) [Ex-2.66, (3S,4S) or (3R,4R) 4-(4-{6-chloro-2-[(5-chloro-1-methyl-1H-pyrazol-4-yl)amino]quinazolin-7-yl}piperidin-1-yl)oxolan-3-ol] the “LRRK2 pIC50” value was >9.20.
Cc1c(Nc2ncc3cc(Cl)c(C4CCN([C@H]5COC[C@H]5O)CC4)cc3n2)cnn1C (single isomer, unassigned) [Ex-2.67, (3S,4S) or (3R,4R) 4-(4-{6-chloro-2-[(1,5-dimethyl-1H-pyrazol-4-yl)amino]quinazolin-7-yl}piperidin-1-yl)oxolan-3-ol] was tested, and the “LRRK2 pIC50” value was >9.20.

Same assay, conditions: G2019S LRRK2, 134 μM ATP (Km ATP), mean values; read-out: LRRK2 pIC50 (converted)
Work on Cc1c(Nc2ncc3cc(Cl)c(C4CCN(C5(C)COC5)CC4)cc3n2)cnn1C1CCOC1 (single isomer, unassigned) [Ex-2.25, (S) or (R) 6-chloro-7-[1-(3-methyloxetan-3-yl)piperidin-4-yl]-N-[5-methyl-1-(oxolan-3-yl)-1H-pyrazol-4-yl]quinazolin-2-amine] yielded an IC50 of 891 pM.
With Cc1c(Nc2ncc3cc(Cl)c(C4CCN(C5(C)COC5)CC4)cc3n2)cnn1C1CCOC1 (single isomer, unassigned) [Ex-2.26, (S) or (R) 6-chloro-7-[1-(3-methyloxetan-3-yl)piperidin-4-yl]-N-[5-methyl-1-(oxolan-3-yl)-1H-pyrazol-4-yl]quinazolin-2-amine] the IC50 was < 631 pM.
With Cc1c(Nc2ncc3cc(Cl)c(C4CCN(C5(C)COC5)CC4)cc3n2)cnn1C1CC1(F)F (single isomer, unassigned) [Ex-2.29, (S) or (R) 6-chloro-N-[1-(2,2-difluorocyclopropyl)-5-methyl-1H-pyrazol-4-yl]-7-[1-(3-methyloxetan-3-yl)piperidin-4-yl]quinazolin-2-amine] the IC50 was 1660 pM.
With Cc1c(Nc2ncc3cc(Cl)c(C4CCN(C5(C)COC5)CC4)cc3n2)cnn1C1CC1(F)F (single isomer, unassigned) [Ex-2.30, (S) or (R) 6-chloro-N-[1-(2,2-difluorocyclopropyl)-5-methyl-1H-pyrazol-4-yl]-7-[1-(3-methyloxetan-3-yl)piperidin-4-yl]quinazolin-2-amine] the IC50 was 646 pM.
In the case of Cc1cc2cnc(Nc3cnn(C4CC4(F)F)c3Cl)nc2cc1C1CCN([C@H]2COC[C@H]2O)CC1 (single isomer, unassigned) [Ex-2.33, (R)(3S,4S) or (R)(3R,4R) or (S)(3S,4S) or (S)(3R,4R) 4-[4-(2-{[5-chloro-1-(2,2-difluorocyclopropyl)-1H-pyrazol-4-yl]amino}-6-methylquinazolin-7-yl)piperidin-1-yl]oxolan-3-ol], the IC50 is reported as < 631 pM.
For C[C@]1(N2CCC(c3cc4nc(Nc5cnn(C67CC(C6)C7)c5)ncc4cc3Cl)CC2)COC[C@H]1O (single isomer, unassigned) [Ex-2.35, (3S,4S) or (3R,4R) 4-[4-(2-{[1-(bicyclo[1.1.1]pentan-1-yl)-1H-pyrazol-4-yl]amino}-6-chloroquinazolin-7-yl)piperidin-1-yl]-4-methyloxolan-3-ol], the IC50 was 3890 pM.
For Cc1cc2cnc(Nc3cnn(C4CC4)c3Cl)nc2cc1C1CCN([C@@]2(C)COC[C@H]2O)CC1 (single isomer, unassigned) [Ex-2.36, (3S,4S) or (3R,4R) 4-(4-{2-[(5-chloro-1-cyclopropyl-1H-pyrazol-4-yl)amino]-6-methylquinazolin-7-yl}piperidin-1-yl)-4-methyloxolan-3-ol], the IC50 was < 631 pM.
